According to US10065961B2, “Chiral N-acyl-5,6,7,(8-substituted)-tetrahydro-[1,2,4]triazolo[4,3-a]pyrazines as selective NK-3 receptor antagonists, pharmaceutical composition, methods for use in NK-3 receptor mediated disorders and chiral synthesis thereof” (Euroscreen S.A., priority 2011, dated 2018):

Legend:
circulating LH levels = assay: Castrated male rat model, circulating levels of luteinizing hormone (LH); assay type: in vivo; settings: castrated male Sprague-Dawley rats, single intravenous 10 mg/kg dose, 1 hour after dosing
Description: 1 on lutenizing hormone (‘LH’) plasma levels in castrated male, Sprague-Dawley rats measured 1 hour after dosing. […] Vehicle, N=10 rats; Compound no. 1, N=9 rats.
19 on lutenizing hormone (‘LH’) plasma levels in castrated male, Sprague-Dawley rats measured 1 hour after dosing. […] Vehicle, n=5 rats; Compound no. 19, n=5 rats.
Castrated Male Rat Model to Assess the Effect of Compound of Invention on Circulating Levels of Luteinizing Hormone (LH).
In humans and rodents, castration is well-precedented to permit heightened, persistent GnRH signaling and consequent elevation of circulating LH. Thus, a castrated rat model is used to provide a broad index for measurement of LH inhibition as a marker of test compound inhibition of the GnRH signaling pathway.
Castrated adult male Sprague-Dawley (SD) rats (150-175 g,) were purchased from Janvier (St Berthevin, France). […] The animals were allowed 2 weeks of postoperative recovery prior to study. Animals were handled on a daily basis. Standard diet and tap water were provided ad libitum. Animal cage litters were changed once a week. […]
After basal sampling (T0) a single dose of compounds of the invention or vehicle was administrated intravenously to rats. […] Serum LH levels were determined using radioimmunoassay kit from RIAZEN—Rat LH, Zentech (Liège, Belgium). […]

[1] = tested on: plasma testosterone levels; assay: Gonad-intact adult male rat, circulating levels of testosterone; settings: gonad-intact male Sprague-Dawley rats, single intravenous 50 mg/kg dose, over 210 minute test period (AUC)
human NK1 receptor = human NK1 receptor (Homo sapiens (Human), UniProt P25103); assay: Human NK1 radioligand binding assay ([3H] substance P)
Description: (§1) Membrane suspensions were prepared from these cells.

human NK2 receptor = human NK2 receptor (Homo sapiens (Human), UniProt P21452); assay: Human NK2 radioligand binding assay ([125I]-Neurokinin A)
Description: as §1

human NK2 receptor, sequence (P21452 whole entry): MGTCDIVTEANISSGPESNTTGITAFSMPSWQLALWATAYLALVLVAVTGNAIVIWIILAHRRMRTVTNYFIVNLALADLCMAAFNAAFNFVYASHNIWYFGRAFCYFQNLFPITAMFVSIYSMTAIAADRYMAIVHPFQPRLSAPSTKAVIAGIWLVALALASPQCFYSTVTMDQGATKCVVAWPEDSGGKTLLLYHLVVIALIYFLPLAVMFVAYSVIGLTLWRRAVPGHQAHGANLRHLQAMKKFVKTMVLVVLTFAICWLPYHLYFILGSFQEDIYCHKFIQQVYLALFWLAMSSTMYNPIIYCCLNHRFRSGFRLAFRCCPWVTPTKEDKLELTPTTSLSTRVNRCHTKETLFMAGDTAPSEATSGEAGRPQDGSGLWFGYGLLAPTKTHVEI
human NK1 receptor, sequence (P25103 whole entry): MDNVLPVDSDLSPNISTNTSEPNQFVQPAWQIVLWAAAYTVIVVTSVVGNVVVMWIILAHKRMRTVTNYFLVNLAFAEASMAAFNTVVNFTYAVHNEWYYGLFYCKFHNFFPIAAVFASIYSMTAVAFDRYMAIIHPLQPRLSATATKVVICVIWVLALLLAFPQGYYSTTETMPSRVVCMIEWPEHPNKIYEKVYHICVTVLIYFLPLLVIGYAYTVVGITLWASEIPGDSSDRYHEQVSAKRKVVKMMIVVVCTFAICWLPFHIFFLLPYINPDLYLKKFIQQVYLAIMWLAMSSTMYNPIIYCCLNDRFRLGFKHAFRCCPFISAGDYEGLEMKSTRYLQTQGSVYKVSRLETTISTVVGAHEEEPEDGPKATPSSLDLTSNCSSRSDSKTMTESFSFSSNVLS

Compound | circulating LH levels (circulating LH levels) | plasma testosterone levels [1] | inhibition at 10 µM (human NK1 receptor) [%] | inhibition at 10 µM (human NK2 receptor) [%]
Cc1nc(-c2nnc3n2CCN(C(=O)c2ccc(-c4cccs4)cc2)[C@@H]3C)cs1 [Compound no. 1, (R)-(8-methyl-3-(2-methylthiazol-4-yl)-5,6-dihydro-[1,2,4]triazolo[4,3-a]pyrazin-7(8H)-yl)(4-(thiophen-2-yl)phenyl)methanone] | significantly suppressed | significantly suppressed | – | –
Cc1csc(-c2nnc3n2CCN(C(=O)c2ccc(-c4cccs4)cc2)[C@@H]3C)n1 [Compound no. 19, (R)-(8-methyl-3-(4-methylthiazol-2-yl)-5,6-dihydro-[1,2,4]triazolo[4,3-a]pyrazin-7(8H)-yl)(4-(thiophen-2-yl)phenyl)methanone] | significantly suppressed | – | – | –
Cc1nc(-c2nnc3n2CCN(C(=O)c2ccc(-c4cccs4)cc2)C3)cs1 [compound 3, (3-(2-methylthiazol-4-yl)-5,6-dihydro-[1,2,4]triazolo[4,3-a]pyrazin-7(8H)-yl)(4-(thiophen-2-yl)phenyl)methanone] | – | – | < 10 | < 10
Cc1nc(-c2nnc3n2CCN(C(=O)c2ccc(-c4cccs4)cc2)[C@@H]3C)co1 [compound 11, (R)-(8-methyl-3-(2-methyloxazol-4-yl)-5,6-dihydro-[1,2,4]triazolo[4,3-a]pyrazin-7(8H)-yl)(4-(thiophen-2-yl)phenyl)methanone] | – | – | < 10 | < 25
C[C@@H]1c2nnc(-c3cccc(O)n3)n2CCN1C(=O)c1ccc(-c2cccs2)cc1 [compound 31, (R)-(3-(6-hydroxypyridin-2-yl)-8-methyl-5,6-dihydro-[1,2,4]triazolo[4,3-a]pyrazin-7(8H)-yl)(4-(thiophen-2-yl)phenyl)methanone] | – | – | < 10 | < 10
